Results taken from PubChem BioAssay (NCI).
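Compound exposure: 48 hours, 5 concentrations, 96-well plates. GI50: concentration for 50% inhibition of growth. TGI: total growth inhibition.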

What was measured:
Assay in all cases: NCI anticancer screen, dose series, 48 h
MDA-MB-231 breast = test system: MDA-MB-231 breast
SK-MEL-28 melanoma = test system: SK-MEL-28 melanoma
UO-31 renal = test system: UO-31 renal
NCI-H226 lung = test system: NCI-H226 lung
HOP-62 NSCLC = test system: HOP-62 NSCLC
SK-MEL-5 melanoma = test system: SK-MEL-5 melanoma
HCT-116 colon = test system: HCT-116 colon
HT29 colon = test system: HT29 colon
KM12 colon = test system: KM12 colon
BT-549 breast = test system: BT-549 breast
NCI/ADR-RES ovarian = test system: NCI/ADR-RES ovarian
M14 melanoma = test system: M14 melanoma
SW-620 colon = test system: SW-620 colon
T-47D breast = test system: T-47D breast
A498 renal = test system: A498 renal
MOLT-4 leukemia = test system: MOLT-4 leukemia
SK-OV-3 ovarian = test system: SK-OV-3 ovarian
MCF7 breast = test system: MCF7 breast
IGROV1 ovarian = test system: IGROV1 ovarian
RXF 393 renal = test system: RXF 393 renal
OVCAR-5 ovarian = test system: OVCAR-5 ovarian
SR leukemia = test system: SR leukemia
CAKI-1 renal = test system: CAKI-1 renal
NCI-H522 lung = test system: NCI-H522 lung
EKVX NSCLC = test system: EKVX NSCLC
DU-145 prostate = test system: DU-145 prostate
UACC-62 melanoma = test system: UACC-62 melanoma
HCC-2998 colon = test system: HCC-2998 colon
LOX IMVI melanoma = test system: LOX IMVI melanoma
786-0 renal = test system: 786-0 renal
SNB-75 CNS = test system: SNB-75 CNS
HL-60(TB) leukemia = test system: HL-60(TB) leukemia
OVCAR-8 ovarian = test system: OVCAR-8 ovarian
HCT-15 colon = test system: HCT-15 colon
K-562 leukemia = test system: K-562 leukemia
OVCAR-3 ovarian = test system: OVCAR-3 ovarian
SF-295 CNS = test system: SF-295 CNS
SF-268 CNS = test system: SF-268 CNS
OVCAR-4 ovarian = test system: OVCAR-4 ovarian
UACC-257 melanoma = test system: UACC-257 melanoma
U251 CNS = test system: U251 CNS
NCI-H23 lung = test system: NCI-H23 lung
HS 578T breast = test system: HS 578T breast
A549 NSCLC = test system: A549 NSCLC
MALME-3M melanoma = test system: MALME-3M melanoma
MDA-MB-435 = test system: MDA-MB-435
SN12C renal = test system: SN12C renal
COLO 205 colon = test system: COLO 205 colon
ACHN renal = test system: ACHN renal
TK-10 renal = test system: TK-10 renal
NCI-H460 lung = test system: NCI-H460 lung
RPMI-8226 leukemia = test system: RPMI-8226 leukemia
SNB-19 CNS = test system: SNB-19 CNS
SF-539 CNS = test system: SF-539 CNS

## O=C(N/N=C/c1ccncc1)c1ccc(C(F)(F)F)nc1Nc1cccc(C(F)(F)F)c1
MDA-MB-231 breast
  GI50: 1810 nM
  TGI: 9.43 µM
SK-MEL-28 melanoma
  GI50: 3.48 µM
  TGI: 14.2 µM
UO-31 renal
  GI50: 2490 nM
  TGI: 10.2 µM
NCI-H226 lung
  GI50: 2650 nM
  TGI: 11 µM
HOP-62 NSCLC
  GI50: 2000 nM
  TGI: 7.29 µM
SK-MEL-5 melanoma
  GI50: 2810 nM
  TGI: 11.7 µM
HCT-116 colon
  GI50: 1400 nM
  TGI: 10.4 µM
HT29 colon
  GI50: 3.43 µM
  TGI: 11 µM
KM12 colon
  GI50: 3.23 µM
  TGI: 12.4 µM
BT-549 breast
  GI50: 613 nM
  TGI: 3.59 µM
NCI/ADR-RES ovarian
  GI50: 2670 nM
  TGI: 9.22 µM
M14 melanoma
  GI50: 1340 nM
  TGI: 4.03 µM
SW-620 colon
  GI50: 2660 nM
  TGI: 12.8 µM
T-47D breast
  GI50: 1780 nM
  TGI: 10.5 µM
A498 renal
  GI50: 2910 nM
  TGI: 10 µM
MOLT-4 leukemia
  GI50: 2530 nM
  TGI: 9.1 µM
SK-OV-3 ovarian
  GI50: 2130 nM
  TGI: 6.67 µM
MCF7 breast
  GI50: 2270 nM
  TGI: 8.52 µM
IGROV1 ovarian
  GI50: 1410 nM
  TGI: 4.26 µM
RXF 393 renal
  GI50: 1510 nM
  TGI: 5.28 µM
OVCAR-5 ovarian
  GI50: 2830 nM
  TGI: 14.8 µM
SR leukemia
  GI50: 271 nM
  TGI: 1740 nM
CAKI-1 renal
  GI50: 1480 nM
  TGI: 4.97 µM
NCI-H522 lung
  GI50: 2700 nM
  TGI: 10.7 µM
EKVX NSCLC
  GI50: 1390 nM
  TGI: 8.87 µM
DU-145 prostate
  GI50: 2590 nM
  TGI: 6.83 µM
UACC-62 melanoma
  GI50: 2570 nM
  TGI: 8.54 µM
HCC-2998 colon
  GI50: 2150 nM
  TGI: 8.94 µM
LOX IMVI melanoma
  GI50: 913 nM
  TGI: 12.3 µM
786-0 renal
  GI50: 1290 nM
  TGI: 7.55 µM
SNB-75 CNS
  GI50: 4.34 µM
  TGI: 17 µM
HL-60(TB) leukemia
  GI50: 1820 nM
  TGI: 8.2 µM
OVCAR-8 ovarian
  GI50: 2390 nM
  TGI: 10.4 µM
HCT-15 colon
  GI50: 804 nM
  TGI: 11.7 µM
K-562 leukemia
  GI50: 2690 nM
  TGI: 11.8 µM
OVCAR-3 ovarian
  GI50: 2650 nM
  TGI: 7.74 µM
SF-295 CNS
  GI50: 1370 nM
  TGI: 3.91 µM
SF-268 CNS
  GI50: 2550 nM
  TGI: 7.36 µM
OVCAR-4 ovarian
  GI50: 808 nM
  TGI: 7.99 µM
UACC-257 melanoma
  GI50: 3.78 µM
  TGI: 10.6 µM
U251 CNS
  GI50: 2470 nM
  TGI: 11.4 µM
NCI-H23 lung
  GI50: 4.34 µM
  TGI: 16.2 µM
HS 578T breast
  GI50: 2020 nM
  TGI: 8.51 µM
A549 NSCLC
  GI50: 3.12 µM
  TGI: 10.9 µM
MALME-3M melanoma
  GI50: 2000 nM
  TGI: 6.99 µM
MDA-MB-435
  GI50: 3.66 µM
  TGI: 13.7 µM
SN12C renal
  GI50: 2370 nM
  TGI: 11.5 µM
COLO 205 colon
  GI50: 2570 nM
  TGI: 7.51 µM
ACHN renal
  GI50: 3.46 µM
  TGI: 12.1 µM
TK-10 renal
  GI50: 2520 nM
  TGI: 11.6 µM
NCI-H460 lung
  GI50: 2840 nM
  TGI: 10.4 µM
RPMI-8226 leukemia
  GI50: 514 nM
  TGI: 4.05 µM
SNB-19 CNS
  GI50: 2670 nM
  TGI: 11.8 µM
SF-539 CNS
  GI50: 2600 nM
  TGI: 9.5 µM
